The values that follow come from US8921376B2, “Pyrrolopyridines useful as inhibitors of protein kinase” (Vertex Pharmaceuticals Incorporated, priority 2005, dated 2014).

Holding throughout (type): biochemical
One test addresses ROCK I (Homo sapiens, UniProt Q13464). Nature of the test: ROCK-I inhibition assay (radioactive enzyme assay, MBP substrate). The method, boiled down: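 Human ROCK at 5 nM phosphorylated 27 μM myelin basic protein with 13 μM [γ-33P]ATP (final) in HEPES pH 7.5, MgCl2, NaCl, DTT and 1.5% DMSO. Reactions ran 2 h at room temperature before TCA quench and filter-plate scintillation counting. After background subtraction, data were fit to give Ki(app).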

A further test concerns the target T1, JAK3 (Homo sapiens, UniProt P52333).
T1 sequence (P52333 1-1124): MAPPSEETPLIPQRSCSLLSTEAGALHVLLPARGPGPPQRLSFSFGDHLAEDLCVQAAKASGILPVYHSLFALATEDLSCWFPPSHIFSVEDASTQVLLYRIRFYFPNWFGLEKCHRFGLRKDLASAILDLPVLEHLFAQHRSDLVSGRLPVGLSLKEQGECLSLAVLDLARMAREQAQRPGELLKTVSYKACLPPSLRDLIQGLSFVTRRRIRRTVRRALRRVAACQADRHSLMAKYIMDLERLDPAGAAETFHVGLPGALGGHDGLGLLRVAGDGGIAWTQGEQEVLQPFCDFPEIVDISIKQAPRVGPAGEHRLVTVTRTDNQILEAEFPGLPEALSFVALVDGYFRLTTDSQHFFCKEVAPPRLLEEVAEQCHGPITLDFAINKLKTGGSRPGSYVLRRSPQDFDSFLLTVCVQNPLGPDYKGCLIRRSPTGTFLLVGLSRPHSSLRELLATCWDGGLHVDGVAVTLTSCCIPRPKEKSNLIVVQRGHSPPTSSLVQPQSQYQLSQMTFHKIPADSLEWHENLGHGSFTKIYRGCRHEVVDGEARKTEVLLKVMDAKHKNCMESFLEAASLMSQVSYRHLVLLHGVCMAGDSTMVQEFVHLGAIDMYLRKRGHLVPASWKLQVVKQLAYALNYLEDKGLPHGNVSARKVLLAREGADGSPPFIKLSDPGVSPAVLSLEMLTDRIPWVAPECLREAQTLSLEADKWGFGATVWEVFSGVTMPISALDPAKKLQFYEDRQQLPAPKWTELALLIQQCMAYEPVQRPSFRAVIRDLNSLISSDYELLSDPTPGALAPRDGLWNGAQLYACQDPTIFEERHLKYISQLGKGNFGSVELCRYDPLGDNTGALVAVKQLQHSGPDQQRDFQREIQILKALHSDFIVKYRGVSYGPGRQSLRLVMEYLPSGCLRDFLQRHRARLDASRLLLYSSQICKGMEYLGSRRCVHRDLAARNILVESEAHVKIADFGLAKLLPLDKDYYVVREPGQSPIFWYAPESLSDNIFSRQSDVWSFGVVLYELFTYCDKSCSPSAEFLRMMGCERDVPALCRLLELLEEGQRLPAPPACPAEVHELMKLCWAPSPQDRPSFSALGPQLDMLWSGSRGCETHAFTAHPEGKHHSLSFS
The test can be described thus: JAK3 inhibition assay (33P incorporation into poly(Glu)4Tyr). The method, boiled down:
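After TCA quench and filter harvest, scintillation counting of 33P measured phosphorylation of poly(Glu)4Tyr (1 μM) by 1 nM JAK3. The 20-min, 25° C. reaction contained 5 μM ATP (200 μCi/μmole) in pH 7.4 HEPES buffer with 10 mM MgCl2.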

Another test has as its target JAK2 (Homo sapiens, UniProt O60674). The test can be described thus: JAK2 inhibition assay (as Example 3 with JAK-2 enzyme). The method in brief: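 In HEPES pH 7.4 buffer with 10 mM MgCl2, 1 mM DTT, 25 mM NaCl and 0.01% BSA, JAK2 enzyme phosphorylated poly(Glu)4Tyr (final 15 μM) using 33P-ATP (final 12 μM) for 20 min at room temperature (25 °C). Reactions stopped with TCA; incorporated 33P measured by scintillation after filtration.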

Setting [1] is: enzyme inhibition, Ki(app), Table 5.
The mark [2] stands for this setting: Table 6, enzyme inhibition data (Ki).

ROCK I, sequence (Q13464 whole entry): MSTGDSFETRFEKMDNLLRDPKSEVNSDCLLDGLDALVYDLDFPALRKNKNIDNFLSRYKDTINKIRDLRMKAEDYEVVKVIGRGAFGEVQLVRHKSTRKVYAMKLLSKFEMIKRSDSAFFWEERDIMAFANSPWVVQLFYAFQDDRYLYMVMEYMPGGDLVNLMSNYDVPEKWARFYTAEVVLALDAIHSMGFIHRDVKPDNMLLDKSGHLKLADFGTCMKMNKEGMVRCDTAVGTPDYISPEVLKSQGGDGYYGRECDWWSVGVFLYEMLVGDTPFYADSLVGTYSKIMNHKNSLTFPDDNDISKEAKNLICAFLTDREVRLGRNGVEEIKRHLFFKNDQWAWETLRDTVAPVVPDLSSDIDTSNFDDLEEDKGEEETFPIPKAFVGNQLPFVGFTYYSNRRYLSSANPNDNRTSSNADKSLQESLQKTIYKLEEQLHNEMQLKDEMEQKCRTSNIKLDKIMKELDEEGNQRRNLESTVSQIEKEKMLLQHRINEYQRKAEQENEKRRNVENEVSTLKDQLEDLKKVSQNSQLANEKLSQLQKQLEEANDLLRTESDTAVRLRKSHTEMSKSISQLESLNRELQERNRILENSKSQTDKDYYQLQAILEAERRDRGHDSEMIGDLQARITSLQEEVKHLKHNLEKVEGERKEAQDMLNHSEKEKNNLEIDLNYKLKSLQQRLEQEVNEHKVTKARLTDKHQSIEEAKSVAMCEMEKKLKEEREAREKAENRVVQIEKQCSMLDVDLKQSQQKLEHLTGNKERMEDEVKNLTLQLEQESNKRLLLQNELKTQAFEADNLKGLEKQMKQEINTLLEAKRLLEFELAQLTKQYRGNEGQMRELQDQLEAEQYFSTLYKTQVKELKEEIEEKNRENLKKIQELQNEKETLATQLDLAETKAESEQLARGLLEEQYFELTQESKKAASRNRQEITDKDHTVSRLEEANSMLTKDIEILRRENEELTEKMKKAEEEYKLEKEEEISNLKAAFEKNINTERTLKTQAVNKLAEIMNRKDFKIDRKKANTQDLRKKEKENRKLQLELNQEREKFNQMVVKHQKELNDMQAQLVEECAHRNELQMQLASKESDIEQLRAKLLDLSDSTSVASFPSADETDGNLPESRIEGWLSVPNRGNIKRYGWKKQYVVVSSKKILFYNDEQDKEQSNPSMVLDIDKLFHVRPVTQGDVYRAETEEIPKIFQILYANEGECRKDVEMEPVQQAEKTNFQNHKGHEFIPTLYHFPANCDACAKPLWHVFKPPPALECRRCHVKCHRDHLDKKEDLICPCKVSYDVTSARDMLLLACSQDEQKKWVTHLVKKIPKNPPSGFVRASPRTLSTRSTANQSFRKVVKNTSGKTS
JAK2, sequence (O60674 whole entry): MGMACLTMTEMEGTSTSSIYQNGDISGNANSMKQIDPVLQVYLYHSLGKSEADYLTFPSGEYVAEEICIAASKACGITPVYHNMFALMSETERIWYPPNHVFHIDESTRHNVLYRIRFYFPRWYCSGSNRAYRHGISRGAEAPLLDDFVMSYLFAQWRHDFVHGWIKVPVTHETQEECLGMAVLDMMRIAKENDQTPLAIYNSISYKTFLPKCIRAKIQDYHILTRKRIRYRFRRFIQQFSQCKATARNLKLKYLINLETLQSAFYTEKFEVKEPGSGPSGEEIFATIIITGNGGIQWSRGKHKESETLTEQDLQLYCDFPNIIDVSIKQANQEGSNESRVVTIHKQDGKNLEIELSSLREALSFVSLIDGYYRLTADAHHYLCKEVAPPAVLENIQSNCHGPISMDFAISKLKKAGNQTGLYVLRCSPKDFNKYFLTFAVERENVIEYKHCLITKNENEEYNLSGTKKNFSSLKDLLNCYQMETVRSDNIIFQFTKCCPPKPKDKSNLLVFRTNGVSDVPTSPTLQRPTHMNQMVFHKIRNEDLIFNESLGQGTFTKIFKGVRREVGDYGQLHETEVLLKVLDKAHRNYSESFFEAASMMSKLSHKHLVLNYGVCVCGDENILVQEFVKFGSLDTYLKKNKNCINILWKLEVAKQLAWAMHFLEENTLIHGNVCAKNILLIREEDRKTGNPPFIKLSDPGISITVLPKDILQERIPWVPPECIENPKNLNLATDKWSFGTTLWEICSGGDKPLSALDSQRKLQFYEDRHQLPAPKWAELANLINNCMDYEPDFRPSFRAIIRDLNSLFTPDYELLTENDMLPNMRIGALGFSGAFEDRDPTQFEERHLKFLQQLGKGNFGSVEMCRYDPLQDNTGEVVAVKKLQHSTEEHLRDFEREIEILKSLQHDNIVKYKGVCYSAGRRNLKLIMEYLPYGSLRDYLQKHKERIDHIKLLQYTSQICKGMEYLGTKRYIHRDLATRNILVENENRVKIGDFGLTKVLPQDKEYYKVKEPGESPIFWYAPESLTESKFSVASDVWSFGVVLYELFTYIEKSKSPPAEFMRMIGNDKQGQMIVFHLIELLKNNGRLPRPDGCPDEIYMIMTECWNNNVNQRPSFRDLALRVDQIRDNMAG

As to `CC(C)c1cccc(-c2ccnc3[nH]ccc23)c1` [compound 109, 4-(3-Isopropyl-phenyl)-1H-pyrrolo[2,3-b]pyridine], the Ki is under 500 nM on ROCK I (setting [1]); under 500 nM on JAK3 (enzyme inhibition, Table 5); under 500 nM on JAK2 (enzyme inhibition, Table 5).

Turning to `CC1CCC(C)N1C(=O)c1cc(-c2c(Cl)cnc3[nH]ccc23)c[nH]1` (stereo not drawn) [compound 359], the figures for the Ki at ROCK I (setting [2]), on JAK3 (setting [2]) and at JAK2 (setting [2]) were 500 to 5000 nM, under 500 nM and under 500 nM, respectively.

For `N#Cc1ccccc1-c1ccnc2[nH]ccc12` [compound 214], the values for the Ki at ROCK I (setting [2]), at JAK3 (setting [2]) and on JAK2 (setting [2]) were 500 to 5000 nM, 500 to 5000 nM and over 5000 nM, respectively.

For the molecule `Clc1cnc2[nH]ccc2c1-c1ccsc1` [compound 82, 5-Chloro-4-(thiophen-3-yl)-1H-pyrrolo[2,3b]pyridine], the Ki was 500 to 5000 nM at ROCK I (setting [1]); under 500 nM at JAK3 (enzyme inhibition, Table 5); under 500 nM at JAK2 (enzyme inhibition, Table 5).

`COc1ccc(OC)c(-c2ccnc3[nH]ccc23)c1` [compound 221]: the Ki at ROCK I (setting [2]) was 500 to 5000 nM; on JAK3 (setting [2]), over 5000 nM; at JAK2 (setting [2]) it was over 5000 nM.

Take `C1=C(c2ccnc3[nH]ccc23)CCC1` [compound 27, 4-Cyclopentenyl-1H-pyrrolo[2,3b]pyridine]: the Ki at ROCK I (setting [1]) is under 500 nM; on JAK3 (enzyme inhibition, Table 5), under 500 nM; at JAK2 (enzyme inhibition, Table 5), under 500 nM.

On to `CC(=O)N1CCCN(c2cccc(-c3c(Cl)cnc4[nH]ccc34)n2)CC1` [compound 76, 1-(4-(6-(5-Chloro-1H-pyrrolo[2,3-b]pyridin-4-yl)pyridin-2-yl)-1,4-diazepan-1-yl)ethanone], for which the Ki on ROCK I (setting [1]) is 500 to 5000 nM; at JAK3 (enzyme inhibition, Table 5) it was under 500 nM; at JAK2 (enzyme inhibition, Table 5) it was under 500 nM.

`FC(F)(F)Oc1ccccc1-c1ccnc2[nH]ccc12` [compound 206]: the Ki at ROCK I (setting [2]) was over 4000 nM; at JAK3 (setting [2]), 500 to 5000 nM; at JAK2 (setting [2]), 500 to 5000 nM.

With `C#CCOC(=O)N1CC[C@@H](Nc2c(Cl)cnc3[nH]ccc23)C1` [compound 169], the results for the Ki on ROCK I (setting [2]), at JAK3 (setting [2]) and at JAK2 (setting [2]) were 500 to 5000 nM, under 500 nM and under 500 nM, respectively.

For the molecule `O=C(NC1CCCCC1)c1cc(-c2ccnc3[nH]ccc23)c[nH]1` [compound 288], the Ki on ROCK I (setting [2]), at JAK3 (setting [2]) and at JAK2 (setting [2]) was under 500 nM in each case.

As to `C#CCOC(=O)N1CCCC(Nc2c(Cl)cnc3[nH]ccc23)C1` (stereo not drawn) [compound 172], the Ki was 500 to 5000 nM at ROCK I (setting [2]), under 500 nM at JAK3 (setting [2]) and under 500 nM on JAK2 (setting [2]).

Consider `CC(=O)Nc1ccccc1-c1ccnc2[nH]ccc12` [compound 118], for which the Ki at ROCK I (setting [1]) was 500 to 5000 nM; on JAK3 (enzyme inhibition, Table 5), over 5000 nM; on JAK2 (enzyme inhibition, Table 5), over 5000 nM.

Turning to `FC(F)(F)c1cccc(-c2ccnc3[nH]ccc23)c1` [compound 113, 4-(3-Trifluoromethyl-phenyl)-1H-pyrrolo[2,3-b]pyridine], the Ki is under 500 nM on ROCK I (setting [1]); 500 to 5000 nM at JAK3 (enzyme inhibition, Table 5); under 500 nM on JAK2 (enzyme inhibition, Table 5).

Consider `C1=C(c2ccnc3[nH]ccc23)CCCC1` [compound 30, 4-Cyclohexenyl-1H-pyrrolo[2,3b]pyridine], for which the Ki at ROCK I (setting [1]) was under 500 nM; on JAK3 (enzyme inhibition, Table 5) it was under 500 nM; at JAK2 (enzyme inhibition, Table 5) it was under 500 nM.

For `Clc1cnc2[nH]ccc2c1NC1CCCN(Cc2ccccc2)C1` (stereo not drawn) [compound 157], the Ki on ROCK I (setting [2]), at JAK3 (setting [2]) and on JAK2 (setting [2]) was under 500 nM in each case.

`C=C(c1c(Cl)cnc2[nH]ccc12)C1CCCC1` [compound 67]: the Ki on ROCK I (setting [1]) is 500 to 5000 nM; at JAK3 (enzyme inhibition, Table 5) it was under 500 nM; on JAK2 (enzyme inhibition, Table 5), under 500 nM.
